“And” between values parts separate entries of the source, which are not always exact repeats. Equal values may be shown once.
Experiments:
[1] = tested on: U87-MG cells (αV integrin); assay: FITC-uPAcyclin receptor binding/competition, U87-MG; parameters: species or system human; conditions: for FITC-uPAcyclin binding, single values: T-test sheet, single replicates of all EXPTs
Method: The U87-MG, U251-MG, and U138-MG cell lines were harvested and acid-treated, as described. Then, 2 × 10^6 cells/sample were exposed for 30 min at 4 °C to uPAcyclin or S-uPAcyclin at the indicated concentrations, or with the following antibodies: VNR147 monoclonal anti-αV integrin (Chemicon Int. Inc., Temecula, CA, USA), polyclonal anti-αV (Millipore, Burlington, MA, USA), monoclonal anti-α2 (Chemicon Int. Inc., Temecula, CA, USA), polyclonal anti-actin (Sigma-Aldrich, St. Louis, MO, USA), monoclonal anti-GAPDH (Abcam, Cambridge, UK), and purified vitronectin (VN, Corning, Glendale, AZ, USA). The cells were subsequently incubated with 50 nM FITC-uPAcyclin for 2 h at 4 °C, as described. At the end of incubation, the cells were washed and the cell surface-associated fluorescence was determined using a fluorimeter (VICTOR^TM X3-PerkinElmer, Waltham, MA, USA). All binding assays were performed three times, with duplicate samples, and analyzed as described in Section 2.11.
Figure 2 αV expression of U87-MG, U251-MG, and U138-MG GBM cells and specific binding of FITC-uPAcyclin. (A) U87-MG, U251-MG, U138-MG, HEK-293, and HEK-293/αV total cell lysates were subjected to Western blotting and probed using polyclonal anti-αV or polyclonal anti-actin as loading control. (B) A total of 2 × 10^6 U87-MG, U251-MG, U138-MG, HEK-293/αV, or HEK-293 cells were pre-incubated for 30 min at 4 °C with 500 nM uPAcyclin and further exposed to 50 nM FITC-uPAcyclin for 2 h at 4 °C. At the end of the incubation, the unbound material was washed and cell-associated FITC-uPAcyclin was quantitated by a fluorimeter. The net value of cell-surface-associated fluorescence, corresponding to the specific binding, is shown. (C) A total of 2 × 10^6 U87-MG, U251-MG, and U138-MG cells were pre-incubated for 30 min at 4 °C with increasing concentrations of unlabeled uPAcyclin and then assayed for binding of FITC-uPAcyclin, for 2 h at 4 °C. Cell-surface-associated fluorescence, as percentage of the samples […], is shown. (D) U87-MG cells were pre-incubated with uPAcyclin (1 pM, 100 nM), scrambled uPAcyclin (S-uPAcyclin, 1 pM and 100 nM)), vitronectin (200 µM), anti-αv polyclonal (anti-αV Pclonal, 5 µg/mL) or monoclonal (anti-αV MoAb, 5 µg/mL) or anti-α2 monoclonal (anti-α2 MoAb, 1 µg/mL), polyclonal anti-actin, and monoclonal anti GAPDH. Then, cells were treated as in B (* p-value < 0.05; *** p-value < 0.001).

[2] = tested on: U251-MG cells; assay: Boyden chamber migration (chemotaxis), U251-MG; format: cell-based, human; conditions: for migrated cells n°/field / migration, % of basal / migration, % of basal, average 2 expts / migration, % of basal, average expt 1 / migration, % of basal, average expt 2 / migration, % of basal, T-test list: sheet data scrambled; for migration, % of basal, average 2 expts: mean of 2 expts; for migration, % of basal, average expt 1: mean of expt 1; for migration, % of basal, average expt 2: mean of expt 2; for migration, % of basal, T-test list: single replicates
Method: (§1) The migration and invasion assays were performed using Boyden chambers and 8 µm pore size PVP-free filters coated with 50 µg/mL of collagen type VI (Sigma), as previously described. For the invasion assays, collagen-coated filters were further coated with 50 µg/mL Matrigel^TM (Sigma). Briefly, 11 × 10^4 U87-MG, 4 × 10^4 U251-MG, or 4 × 10^4 U138-MG/sample were pre-treated for 40 min at 37 °C with the indicated effectors. Then, the cells were allowed to migrate for 3 h or to invade for 5 h at 37 °C toward 5% FBS in DMEM/0.1% BSA. At the end of both assays, the cells on the lower filter surface were fixed, stained with haematoxylin, and counted under an optical microscope (Zeiss Axiophot, Carl Zeiss, Milan, Italy) at 20× magnification. The migration and invasion experiments were conducted in triplicate for U87-MG and in duplicate for U251-MG and U138-MG. The migrated or invaded cells were reported as percentage of basal migration or invasion in the presence of DMEM/0.1% BSA, taken as 100%, and analyzed as reported in Section 2.11.
(§2) Figure 3 Inhibition of U87-MG, U251-MG, and U138-MG GBM cellular migration by uPAcyclin. Quantitative analysis of U87-MG (A), U251-MG (B), and U138-MG (C) directional migration. A total of 11 × 10^4 U87-MG/sample or 4 × 10^4 U251-MG or U138-MG/sample were pre-treated for 40 min at 37 °C with uPAcyclin or S-peptide at the indicated concentrations, anti-αV polyclonal (anti-αV Pclonal) or monoclonal (anti-αV MoAb) antibody, or anti-GAPDH, and anti-α2 monoclonal antibody (anti-α2 MoAb), and then assayed in Boyden chambers at 37 °C, either for basal (BSA) or directional 5% FBS-dependent migration for 3 h at 37 °C. At the end of incubation, the filters were processed as described in Methods. Basal migration was taken as 100% and all values were calculated relative to that (* p-value < 0.05; ** p-value < 0.005; *** p-value < 0.001).

[3] = tested on: U87-MG cells; assay: Boyden chamber migration (chemotaxis), U87-MG; format: cell-based, human; conditions: for % of the basal: sheet all data, Average all expts; for % of basal, average / % of basal / cells n°/field / % of basal (T-TEST list): sheet data scrambled; for % of basal, average: Average 2 expts
Method: as §1, §2

[4] = 100 nM, 5% FBS, 3 h, expt 1, duplicates
[5] = 100 nM, 5% FBS, 3 h, expt 2, duplicates
[6] = 10pM, Expt n°2, replicate 1 (as labelled)
[7] = 10pM, Expt n°2, replicate 2 (as labelled)
[8] = 1nM, Expt n°2, replicate 1 (as labelled)
[9] = 1nM, Expt n°2, replicate 2 (as labelled)
[10] = 1 nM, 5% FBS, 3 h, expt 1, duplicates
[11] = 1 nM, 5% FBS, 3 h, expt 2, duplicates

Substance: Ac-K^1P[ESPPEELK^10]-NH2 (sidechain bridge or staple) [uPAcyclin]
- FITC-uPAcyclin binding, single values ([1]; competitor 1 pM): 70 and 77 and 74 and 75
- FITC-uPAcyclin binding, single values ([1]; competitor 100 nM): 38 and 42 and 49 and 44 and 54
- Kdapp ([1]; unlabeled uPAcyclin vs FITC-uPAcyclin, U87-MG, 4 °C): low nanomolar range
- inhibition of migration ([2]; 1 nM, U251-MG, 5% FBS, 3 h): 70–80%
- migration, % of the basal, average all expts ([2]; 1 nM): 99%
- migration, in words ([2]; 100 nM, U251-MG, 5% FBS, 3 h): below background levels
- migration, % of the basal, average all expts ([2]; 100 nM): 83%
- migrated cells n°/field [2, 4]: 12 cells n°/field and 13 cells n°/field
- migration, % of basal [2, 4]: 86% and 93%
- migrated cells n°/field [2, 5]: 27 cells n°/field and 21 cells n°/field
- migration, % of basal [2, 5]: 123% and 95%
- migration, % of basal, average 2 expts ([2]; 100 nM): 99.2955%
- migration, % of basal, average expt 1 ([2]; 100 nM): 89.5%
- migration, % of basal, average expt 2 ([2]; 100 nM): 109.091%
- migration, % of basal, T-test list ([2]; 100 nM): 86 and 93 and 95
- inhibition of migration ([3]; 1 nM, U87-MG, 5% FBS, 3 h): 70–80%
- migration, in words ([3]; 100 nM, U87-MG, 5% FBS, 3 h): below background levels
- % of the basal ([3]; 10pM): 168%
- % of the basal ([3]; 1nM): 119%
- % of the basal ([3]; 100nM): 87%
- % of basal, average ([3]; 10pM): 143.5%
- % of basal ([3]; 10pM, Expt n°1, replicate 1): 133%
- cells n°/field ([3]; 10pM, Expt n°1, replicate 1): 14 cells n°/field
- % of basal ([3]; 10pM, Expt n°1, replicate 2): 143%
- cells n°/field ([3]; 10pM, Expt n°1, replicate 2): 15 cells n°/field
- % of basal [3, 6]: 152%
- cells n°/field [3, 6]: 16 cells n°/field
- % of basal [3, 7]: 133%
- cells n°/field [3, 7]: 14 cells n°/field
- % of basal (T-TEST list) ([3]; 10 pM, T-TEST list value 1): 143
- % of basal (T-TEST list) ([3]; 10 pM, T-TEST list value 2): 152
- % of basal (T-TEST list) ([3]; 10 pM, T-TEST list value 3): 133
- % of basal (T-TEST list) ([3]; 10 pM, T-TEST list value 4): 143
- % of basal, average ([3]; 1nM): 131%
- % of basal ([3]; 1nM, Expt n°1, replicate 1): 124%
- cells n°/field ([3]; 1nM, Expt n°1, replicate 1): 13 cells n°/field
- % of basal ([3]; 1nM, Expt n°1, replicate 2): 124%
- cells n°/field ([3]; 1nM, Expt n°1, replicate 2): 13 cells n°/field
- % of basal [3, 8]: 143%
- cells n°/field [3, 8]: 15 cells n°/field
- % of basal [3, 9]: 171%
- cells n°/field [3, 9]: 18 cells n°/field
- % of basal (T-TEST list) ([3]; 1 nM, T-TEST list value 1): 133
- % of basal (T-TEST list) ([3]; 1 nM, T-TEST list value 2): 143
- % of basal (T-TEST list) ([3]; 1 nM, T-TEST list value 3): 124
- % of basal (T-TEST list) ([3]; 1 nM, T-TEST list value 4): 124

Substance: Ac-PS[EELKPEPK]-NH2 (sidechain bridge or staple) [S-uPAcyclin, scrambled control peptide]
- competition with FITC-uPAcyclin binding, in words ([1]; U87-MG, S-uPAcyclin 1 pM and 100 nM, vitronectin 200 µM, anti-αV 5 µg/mL, anti-α2 1 µg/mL): retains very little binding ability
- FITC-uPAcyclin binding, single values ([1]; competitor 1 pM, listed as Scrambled uPAcyclin): 85 and 88 and 80 and 75
- FITC-uPAcyclin binding, single values ([1]; competitor 100 nM, listed as Scrambled uPAcyclin): 74 and 80 and 82 and 75
- migration, % of the basal, average all expts ([2]; 1 nM): 176%
- migrated cells n°/field [2, 10]: 28 cells n°/field and 26 cells n°/field
- migration, % of basal [2, 10]: 200% and 186%
- migrated cells n°/field [2, 11]: 32 cells n°/field and 38 cells n°/field
- migration, % of basal [2, 11]: 145% and 172%
- migration, % of basal, average 2 expts ([2]; 1 nM): 176.045%
- migration, % of basal, average expt 1 ([2]; 1 nM): 193%
- migration, % of basal, average expt 2 ([2]; 1 nM): 159.091%
- migration, % of basal, T-test list ([2]; 1 nM): 200 and 186 and 145 and 172
- migration, % of the basal, average all expts ([2]; 100 nM): 157%
- migrated cells n°/field [2, 4]: 23 cells n°/field and 20 cells n°/field
- migration, % of basal [2, 4]: 164% and 143%
- migrated cells n°/field [2, 5]: 35 cells n°/field and 36 cells n°/field
- migration, % of basal [2, 5]: 159% and 163%
- migration, % of basal, average 2 expts ([2]; 100 nM): 157.432%
- migration, % of basal, average expt 1 ([2]; 100 nM): 153.5%
- migration, % of basal, average expt 2 ([2]; 100 nM): 161.364%
- migration, % of basal, T-test list ([2]; 100 nM): 164 and 143 and 159
- % of the basal ([3]; 10pM): 169%
- % of the basal ([3]; 1nM): 183%
- % of the basal ([3]; 100nM): 160%
- % of basal (T-TEST list) ([3]; 10 pM, T-TEST list value 1): 171
- % of basal (T-TEST list) ([3]; 10 pM, T-TEST list value 2): 152
- % of basal (T-TEST list) ([3]; 10 pM, T-TEST list value 3): 191
- % of basal (T-TEST list) ([3]; 10 pM, T-TEST list value 4): 162
- % of basal (T-TEST list) ([3]; 1 nM, T-TEST list value 1): 171
- % of basal (T-TEST list) ([3]; 1 nM, T-TEST list value 2): 190
- % of basal (T-TEST list) ([3]; 1 nM, T-TEST list value 3): 191
- % of basal (T-TEST list) ([3]; 1 nM, T-TEST list value 4): 181
- % of basal (T-TEST list) ([3]; 100nM, T-TEST list value 2): 158
- % of basal (T-TEST list) ([3]; 100nM, T-TEST list value 3): 158
- % of basal (T-TEST list) ([3]; 100nM, T-TEST list value 4): 162
- effect on migration, in words ([3]; up to 100 nM, U87-MG (Figure 3A)): ineffective up to 100 nM

Reference: paper PMC10571957, “αV-Integrin-Dependent Inhibition of Glioblastoma Cell Migration, Invasion and Vasculogenic Mimicry by the uPAcyclin Decapeptide” (Cancers, 2023)
